Structures can show the parent of a compound that is named as a salt. Where two headings read alike, the source gives them in different places.
Tests used:
MELK = MELK (Homo sapiens, UniProt Q14680); experiment: Kinase assay: MELK activity, phosphorylation of FITC-labeled histone H3 peptide measured by IMAP fluorescence polarization; assay type: biochemical; details: read-out: IC50 (μM) (kinase assay)
Method in brief: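 Kinase reactions ran with or without test compound (final DMSO 1%) on a fluorescein-tagged H3 peptide. Progressive binding solution was added to terminate them. After a half-hour room-temperature incubation, polarization was measured.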

22Rv1 cells = experiment: Cell-based assay: anti-proliferative activity, Cell Counting Kit-8, 72 hours (22Rv1); details: Homo sapiens
HT-1197 cells = experiment: Cell-based assay: anti-proliferative activity, Cell Counting Kit-8, 72 hours (HT-1197, negative control without MELK expression); details: HT1197 cells (negative control, no MELK expression), 72 hours
Method in brief: (§1)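 First, lysates underwent western blotting with anti-MELK antibody to establish expression. Next, cells went into 96-well plates. Then candidate inhibitors were added. Finally, viability was determined by CCK-8 at 72 h and IC50 computed.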

A549 cells = experiment: Cell-based assay: anti-proliferative activity, Cell Counting Kit-8, 72 hours (A549); details: 72 hours
Method in brief: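 Cell Counting Kit-8 read-out of A549 growth after 72 hours of inhibitor exposure, cells plated in 96-well format. Values reported as IC50.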

T47D cells = experiment: Cell-based assay: anti-proliferative activity, Cell Counting Kit-8, 72 hours (T47D); details: 72 hours
Method in brief: as §1

DU4475 cells = experiment: Cell-based assay: anti-proliferative activity, Cell Counting Kit-8, 72 hours (DU4475)

Chain of MELK (Q14680 whole entry, looked up): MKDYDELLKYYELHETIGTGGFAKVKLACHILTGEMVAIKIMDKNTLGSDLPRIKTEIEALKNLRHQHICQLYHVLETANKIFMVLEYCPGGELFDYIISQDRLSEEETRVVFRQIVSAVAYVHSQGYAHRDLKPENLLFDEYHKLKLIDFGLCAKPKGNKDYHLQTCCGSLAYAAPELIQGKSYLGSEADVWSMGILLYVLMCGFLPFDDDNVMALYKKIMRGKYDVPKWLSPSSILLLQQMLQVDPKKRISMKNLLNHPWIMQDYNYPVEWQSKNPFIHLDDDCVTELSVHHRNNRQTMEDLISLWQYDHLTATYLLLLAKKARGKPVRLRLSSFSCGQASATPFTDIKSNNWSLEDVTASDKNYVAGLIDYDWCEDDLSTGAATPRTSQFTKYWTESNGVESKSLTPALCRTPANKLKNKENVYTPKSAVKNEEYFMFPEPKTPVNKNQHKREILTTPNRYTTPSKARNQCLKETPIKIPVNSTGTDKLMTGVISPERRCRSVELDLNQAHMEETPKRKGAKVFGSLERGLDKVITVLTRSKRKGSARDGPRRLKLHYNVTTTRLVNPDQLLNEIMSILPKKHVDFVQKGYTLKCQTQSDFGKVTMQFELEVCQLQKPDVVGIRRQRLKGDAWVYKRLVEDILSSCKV

| Structure (SMILES) | IC50 (MELK; dihydrochloride) | IC50 (22Rv1 cells) | IC50 (HT-1197 cells; dihydrochloride) | IC50 (A549 cells; dihydrochloride) | IC50 (T47D cells; dihydrochloride) | IC50 (DU4475 cells; dihydrochloride) | IC50 (A549 cells; hydrochloride) | IC50 (T47D cells; hydrochloride) | IC50 (DU4475 cells; hydrochloride) | IC50 (MELK; hydrochloride) | IC50 (HT-1197 cells; hydrochloride) | other results |
| --- | --- | --- | --- | --- | --- | --- | --- | --- | --- | --- | --- | --- |
| CCC(=O)c1cnc2ccc(-c3cc(Cl)c(O)c(Cl)c3)cc2c1N[C@H]1CC[C@H](CN(C)C)CC1 [Example 716, 1-(6-(3,5-dichloro-4-hydroxyphenyl)-4-((trans-4-((dimethylamino)methyl)cyclohexyl)amino)quinolin-3-yl)propan-1-one dihydrochloride] | 0.0016 µM | 0.14 µM | 0.82 µM | 0.12 µM | 0.14 µM | 0.055 µM | – | – | – | – | – | – |
| CN(C)C1CCN(Cc2ccc(Nc3c(C(=O)C4CC4)cnc4ccc(-c5cc(Cl)c(O)c(Cl)c5)cc34)cc2)C1 (centres unmarked) [Example 695, cyclopropyl(6-(3,5-dichloro-4-hydroxyphenyl)-4-(4-((3-(dimethylamino)pyrrolidin-1-yl)methyl)phenylamino)quinolin-3-yl)methanone hydrochloride] | – | 0.23 µM | – | – | – | – | 0.13 µM | 0.26 µM | 0.1 µM | – | – | IC50 (HT-1197 cells; Homo sapiens, HT1197, 72 h): 5.8 µM |
| CC(=O)c1cnc2ccc(-c3cc(Cl)c(O)c(Cl)c3)cc2c1Nc1ccc(CN2CCN(C)CC2)cc1 [Example 655, 1-(6-(3,5-dichloro-4-hydroxyphenyl)-4-(4-((4-methylpiperazin-1-yl)methyl)phenylamino)quinolin-3-yl)ethanone hydrochloride] | – | 0.18 µM | – | – | – | – | 0.23 µM | 0.072 µM | 0.097 µM | 0.0029 µM | 7.8 µM | – |
| N[C@H]1CCCN(c2ccc(Nc3c(C(=O)C4CC4)cnc4ccc(-c5cc(Cl)c(O)c(Cl)c5)cc34)cn2)C1 [Example 647, (S)-(4-(6-(3-aminopiperidin-1-yl)pyridin-3-ylamino)-6-(3,5-dichloro-4-hydroxyphenyl)quinolin-3-yl)(cyclopropyl)methanone hydrochloride] | – | 0.03 µM | – | – | – | – | 0.08 µM | 0.03 µM | 0.015 µM | 0.0015 µM | 0.75 µM | – |
| CC(=O)c1cnc2ccc(-c3cc(F)c(O)c(Cl)c3)cc2c1N[C@H]1CC[C@H](CCN(C)C)CC1 [Example 742, 1-(6-(3-chloro-5-fluoro-4-hydroxyphenyl)-4-(1R,4R)-4-(2-(dimethylamino)ethyl)cyclohexylamino)quinolin-3-yl)ethanone dihydrochloride] | 0.0044 µM | 0.094 µM | 1.7 µM | 0.078 µM | 0.034 µM | 0.063 µM | – | – | – | – | – | – |
| CC(=O)c1cnc2ccc(-c3cc(F)c(O)c(Cl)c3)cc2c1Nc1ccc(N2CCCC(N)C2)nc1 (centres unmarked) [Example 733, 1-(4-(6-(3-aminopiperidin-1-yl)pyridin-3-ylamino)-6-(3-chloro-5-fluoro-4-hydroxyphenyl)quinolin-3-yl)ethanone] | – | 0.0064 µM | – | – | – | – | – | – | – | – | – | IC50 (MELK): 0.00099 µM; IC50 (HT-1197 cells): 0.064 µM; IC50 (A549 cells): 0.0086 µM; IC50 (T47D cells): 0.0035 µM; IC50 (DU4475 cells): 0.01 µM |

From patent US9120749B2, “Quinoline derivatives and MELK inhibitors containing the same” (ONCOTHERAPY SCIENCE, INC., priority 2010, dated 2015)
